Laboratory results from PMC7438494 (Communications Biology, 2020).
Like-named read-outs stand apart in the source and are kept apart here.

Target: human ATP synthase (Homo sapiens, UniProt P00846+P05496)
Experiment: biochemical
Assay type: biochemical
Conditions: Human Mito
[1] = 3rd exp (12-20-18), BDQ in DMSO, Bedaquiline 0.05 μM, 60 min
[2] = 4th exp (12-12-28), repeated point, Bedaquiline 5e-6 μM, 60 min
[3] = 4th exp (12-12-28), repeated point, Bedaquiline 5e-5 μM, 60 min

Question: What does the source list for `COc1nc2ccc(Br)cc2cc1[C@@H](c1ccccc1)[C@@](O)(CCN(C)C)c1cccc2ccccc12` [BDQ, Bedaquiline]?
Answer: Cyanide sensitive (2nd exp (12-17-18), Bedaquiline 0.2 μM, 60 min): 5.1889 nmol/min/mg; activity at 0.2 µM (2nd exp (12-17-18), Bedaquiline 0.2 μM, 60 min, read-out: % activity): 59.9%; Cyanide sensitive (2nd exp (12-17-18), Bedaquiline 0.5 μM, 60 min): 5.024 nmol/min/mg; activity at 0.5 µM (2nd exp (12-17-18), Bedaquiline 0.5 μM, 60 min, read-out: % activity): 58%; Cyanide sensitive (2nd exp (12-17-18), Bedaquiline 0.65 μM, 60 min): 2.666 nmol/min/mg; activity at 0.65 µM (2nd exp (12-17-18), Bedaquiline 0.65 μM, 60 min, read-out: % activity): 30.8%; Cyanide sensitive (2nd exp (12-17-18), Bedaquiline 0.85 μM, 60 min): 2.868 nmol/min/mg; activity at 0.85 µM (2nd exp (12-17-18), Bedaquiline 0.85 μM, 60 min, read-out: % activity): 33.1%; Cyanide sensitive (2nd exp (12-17-18), Bedaquiline 2 μM, 60 min): 0.0982 nmol/min/mg; activity at 2 µM (2nd exp (12-17-18), Bedaquiline 2 μM, 60 min, read-out: % activity): 1.13%; Cyanide sensitive (2nd exp (12-17-18), Bedaquiline 5 μM, 60 min): -0.8746 nmol/min/mg; activity at 5 µM (2nd exp (12-17-18), Bedaquiline 5 μM, 60 min, read-out: % activity): -10.1%; activity at 0.005 µM (2 nd exp (18_12_17), BDQ 0.005 uM, read-out: Cyanide sensitive % activity): 43.8%; activity at 0.1 µM (2 nd exp (18_12_17), BDQ 0.1 uM, read-out: Cyanide sensitive % activity): 62%; activity at 0.2 µM (2 nd exp (18_12_17), BDQ 0.2 uM, read-out: Cyanide sensitive % activity): 59.9%; activity at 0.5 µM (2 nd exp (18_12_17), BDQ 0.5 uM, read-out: Cyanide sensitive % activity): 58%; activity at 0.65 µM (2 nd exp (18_12_17), BDQ 0.65 uM, read-out: Cyanide sensitive % activity): 30.8%; activity at 0.85 µM (2 nd exp (18_12_17), BDQ 0.85 uM, read-out: Cyanide sensitive % activity): 33.1%; activity at 2 µM (2 nd exp (18_12_17), BDQ 2 uM, read-out: Cyanide sensitive % activity): 1.13%; Cyanide sensitive (3rd exp (12-20-18), BDQ in DMSO, Bedaquiline 0.0005 μM, 60 min): 7.6746 nmol/min/mg; activity at 0.0005 µM (3rd exp (12-20-18), BDQ in DMSO, Bedaquiline 0.0005 μM, 60 min, read-out: % activity): 81.5%; Cyanide sensitive (3rd exp (12-20-18), BDQ in DMSO, Bedaquiline 0.005 μM, 60 min): 8.333 nmol/min/mg; activity at 0.005 µM (3rd exp (12-20-18), BDQ in DMSO, Bedaquiline 0.005 μM, 60 min, read-out: % activity): 88.5%; Cyanide sensitive [1]: 6.758 nmol/min/mg; activity at 0.05 µM [1]: 71.8%; Cyanide sensitive (3rd exp (12-20-18), BDQ in DMSO, Bedaquiline 0.1 μM, 60 min): 8.103 nmol/min/mg; activity at 0.1 µM (3rd exp (12-20-18), BDQ in DMSO, Bedaquiline 0.1 μM, 60 min, read-out: % activity): 86%; Cyanide sensitive (3rd exp (12-20-18), BDQ in DMSO, Bedaquiline 0.2 μM, 60 min): 5.599 nmol/min/mg; activity at 0.2 µM (3rd exp (12-20-18), BDQ in DMSO, Bedaquiline 0.2 μM, 60 min, read-out: % activity): 59.5%; Cyanide sensitive (3rd exp (12-20-18), BDQ in DMSO, Bedaquiline 0.5 μM, 60 min): 3.146 nmol/min/mg; activity at 0.5 µM (3rd exp (12-20-18), BDQ in DMSO, Bedaquiline 0.5 μM, 60 min, read-out: % activity): 33.4%; Cyanide sensitive (3rd exp (12-20-18), BDQ in DMSO, Bedaquiline 0.65 μM, 60 min): 3.762 nmol/min/mg; activity at 0.65 µM (3rd exp (12-20-18), BDQ in DMSO, Bedaquiline 0.65 μM, 60 min, read-out: % activity): 40%; Cyanide sensitive (3rd exp (12-20-18), BDQ in DMSO, Bedaquiline 0.85 μM, 60 min): 3.062 nmol/min/mg; activity at 0.85 µM (3rd exp (12-20-18), BDQ in DMSO, Bedaquiline 0.85 μM, 60 min, read-out: % activity): 32.5%; Cyanide sensitive (3rd exp (12-20-18), BDQ in DMSO, Bedaquiline 1 μM, 60 min): -0.07798 nmol/min/mg; activity at 1 µM (3rd exp (12-20-18), BDQ in DMSO, Bedaquiline 1 μM, 60 min, read-out: % activity): -0.828%; Cyanide sensitive (3rd exp (12-20-18), BDQ in DMSO, Bedaquiline 2 μM, 60 min): 0.1555 nmol/min/mg; activity at 2 µM (3rd exp (12-20-18), BDQ in DMSO, Bedaquiline 2 μM, 60 min, read-out: % activity): 1.65%; Cyanide sensitive (3rd exp (12-20-18), BDQ in DMSO, Bedaquiline 5 μM, 60 min): -0.3777 nmol/min/mg; activity at 5 µM (3rd exp (12-20-18), BDQ in DMSO, Bedaquiline 5 μM, 60 min, read-out: % activity): -4.01%; activity at 0.0005 µM (3rd exp (18_12_20), BDQ 0.0005 uM, read-out: Cyanide sensitive % activity): 81.5%; activity at 0.005 µM (3rd exp (18_12_20), BDQ 0.005 uM, read-out: Cyanide sensitive % activity): 88.5%; activity at 0.2 µM (3rd exp (18_12_20), BDQ 0.2 uM, read-out: Cyanide sensitive % activity): 59.5%; activity at 0.5 µM (3rd exp (18_12_20), BDQ 0.5 uM, read-out: Cyanide sensitive % activity): 33.4%; activity at 0.65 µM (3rd exp (18_12_20), BDQ 0.65 uM, read-out: Cyanide sensitive % activity): 40%; activity at 0.85 µM (3rd exp (18_12_20), BDQ 0.85 uM, read-out: Cyanide sensitive % activity): 32.5%; activity at 1 µM (3rd exp (18_12_20), BDQ 1 uM, read-out: Cyanide sensitive % activity): -0.84%; activity at 2 µM (3rd exp (18_12_20), BDQ 2 uM, read-out: Cyanide sensitive % activity): 1.68%; activity at 5 µM (3rd exp (18_12_20), BDQ 5 uM, read-out: Cyanide sensitive % activity): -4.13%; Cyanide sensitive (4th exp (12-12-28), BDQ in DMSO, Bedaquiline 5e-6 μM, 60 min): 6.055 nmol/min/mg; Cyanide sensitive (4th exp (12-12-28), BDQ in DMSO, Bedaquiline 5e-5 μM, 60 min): 5.641 nmol/min/mg; Cyanide sensitive (4th exp (12-12-28), BDQ in DMSO, Bedaquiline 0.0005 μM, 60 min): 4.664 nmol/min/mg; activity at 0.0005 µM (4th exp (12-12-28), BDQ in DMSO, Bedaquiline 0.0005 μM, 60 min, read-out: % activity): 52.7%; Cyanide sensitive (4th exp (12-12-28), BDQ in DMSO, Bedaquiline 0.005 μM, 60 min): 4.551 nmol/min/mg; activity at 0.005 µM (4th exp (12-12-28), BDQ in DMSO, Bedaquiline 0.005 μM, 60 min, read-out: % activity): 51.4%; Cyanide sensitive (4th exp (12-12-28), BDQ in DMSO, Bedaquiline 0.1 μM, 60 min): 6.3 nmol/min/mg; activity at 0.1 µM (4th exp (12-12-28), BDQ in DMSO, Bedaquiline 0.1 μM, 60 min, read-out: % activity): 71.2%; Cyanide sensitive (4th exp (12-12-28), BDQ in DMSO, Bedaquiline 0.2 μM, 60 min): 4.408 nmol/min/mg; activity at 0.2 µM (4th exp (12-12-28), BDQ in DMSO, Bedaquiline 0.2 μM, 60 min, read-out: % activity): 49.8%; Cyanide sensitive (4th exp (12-12-28), BDQ in DMSO, Bedaquiline 0.5 μM, 60 min): 4.526 nmol/min/mg; activity at 0.5 µM (4th exp (12-12-28), BDQ in DMSO, Bedaquiline 0.5 μM, 60 min, read-out: % activity): 51.2%; Cyanide sensitive (4th exp (12-12-28), BDQ in DMSO, Bedaquiline 0.65 μM, 60 min): 3.3225 nmol/min/mg; activity at 0.65 µM (4th exp (12-12-28), BDQ in DMSO, Bedaquiline 0.65 μM, 60 min, read-out: % activity): 37.6%; Cyanide sensitive (4th exp (12-12-28), BDQ in DMSO, Bedaquiline 1 μM, 60 min): 0.7592 nmol/min/mg; activity at 1 µM (4th exp (12-12-28), BDQ in DMSO, Bedaquiline 1 μM, 60 min, read-out: % activity): 8.58%; Cyanide sensitive (4th exp (12-12-28), BDQ in DMSO, Bedaquiline 2 μM, 60 min): 0.2448 nmol/min/mg; activity at 2 µM (4th exp (12-12-28), BDQ in DMSO, Bedaquiline 2 μM, 60 min, read-out: % activity): 2.77%; Cyanide sensitive (4th exp (12-12-28), BDQ in DMSO, Bedaquiline 5 μM, 60 min): -0.2191 nmol/min/mg; activity at 5 µM (4th exp (12-12-28), BDQ in DMSO, Bedaquiline 5 μM, 60 min, read-out: % activity): -2.48%; Cyanide sensitive (4th exp (12-12-28), BDQ in DMSO, Bedaquiline 10 μM, 60 min): -0.1822 nmol/min/mg; activity at 10 µM (4th exp (12-12-28), BDQ in DMSO, Bedaquiline 10 μM, 60 min, read-out: % activity): -2.06%; Repeted points [2]: 6.965 nmol/min/mg; Repeted points % activity [2]: 78.7332%; Repeted points [3]: 6.5997 nmol/min/mg; Repeted points % activity [3]: 74.6041%; Repeted points (4th exp (12-12-28), repeated point, Bedaquiline 1 μM, 60 min): 0.7668 nmol/min/mg; activity at 1 µM (4th exp (12-12-28), repeated point, Bedaquiline 1 μM, 60 min, read-out: Repeted points % activity): 8.67%; activity at 10 µM (4th exp (18_12_26) duplicate, BDQ 10 uM, read-out: Cyanide sensitive % activity): -2.1%; activity at 0.1 µM (4th exp (18_12_26), BDQ 0.1 uM, read-out: Cyanide sensitive % activity): 71.2%; activity at 0.2 µM (4th exp (18_12_26), BDQ 0.2 uM, read-out: Cyanide sensitive % activity): 49.8%; activity at 0.5 µM (4th exp (18_12_26), BDQ 0.5 uM, read-out: Cyanide sensitive % activity): 51.2%; activity at 0.65 µM (4th exp (18_12_26), BDQ 0.65 uM, read-out: Cyanide sensitive % activity): 37.6%
